Test results from PubChem BioAssay (NCI).
Several values for one entry are separate records, joined by “and”; a condition that tells them apart may be missing. Identical values can stand only once.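 Each compound was tested at five concentrations against cells in 96-well plates for 48 hours. Abbreviation: GI50, concentration required for 50% inhibition of growth. The concentration for full growth arrest is given as TGI.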

Tests used:
Assay in all cases: NCI anticancer screen, dose series, 48 h
[1] = system: CCRF-CEM leukemia
[2] = system: HCT-116 colon
[3] = system: IGROV1 ovarian
[4] = system: K-562 leukemia
[5] = system: KM12 colon
[6] = system: OVCAR-4 ovarian
[7] = system: OVCAR-5 ovarian
[8] = system: SF-295 CNS
[9] = system: TK-10 renal
[10] = system: EKVX NSCLC

SMILES | GI50 [1] | TGI [1] | GI50 [2] | TGI [2] | GI50 [3] | TGI [3] | GI50 [4] | TGI [4] | GI50 [5] | TGI [5] | GI50 [6] | TGI [6] | GI50 [7] | TGI [7] | GI50 [8] | TGI [8] | GI50 [9] | TGI [9] | GI50 [10] | TGI [10]
Nc1nc(Nc2cccc(F)c2)nc2ccccc12 | 24.6 µM | > 100 µM | 18.1 µM | 46.4 µM | 38.7 µM | > 100 µM | 24.9 µM | > 100 µM | 18.1 µM | 42.4 µM | 22.9 µM | > 100 µM | 17.4 µM | 43.5 µM | 17.8 µM | 42.7 µM | 39.3 µM | 90.3 µM | – | –
N#CC1C(N)=NNC12Nc1ccccc1N2 (stereo not drawn) | – | – | 34.1 µM | > 100 µM | 11.9 µM | 71.3 µM | 14 µM | 78.6 µM | > 100 µM | > 100 µM | 18 µM | 92.3 µM | > 100 µM | > 100 µM | 18.8 µM | 69.4 µM | 30.7 µM | 73.3 µM | 14.9 µM | 64.6 µM
CCCCCc1c(C)[nH]c(/C=C2\N=C(c3ccc[nH]3)C=C2Oc2ccc(Cl)cc2)c1C | 0.0392 µM and < 0.01 µM | > 100 µM | 0.0392 µM and 0.0147 µM | 1.22 µM and 1.18 µM | 0.204 µM and 0.129 µM | 50.9 µM | 0.0485 µM and 0.0367 µM | > 100 µM | 0.04 µM and 0.0133 µM | 1.5 µM and 0.614 µM | 0.0527 µM and 0.0228 µM | > 100 µM | 0.142 µM and 0.0383 µM | 4.26 µM | 0.17 µM and 0.0832 µM | 0.57 µM and 1.1 µM | 0.413 µM and 0.0539 µM | 5.45 µM and 0.921 µM | – | –
S=c1ssc(Sc2ccccn2)c1Cl | – | – | – | – | – | – | 3.63 µM | 14.5 µM | 15.5 µM | 28.8 µM | 5.2 µM | > 100 µM | 25.6 µM | 48.3 µM | 16.5 µM | 34.5 µM | 2.11 µM | 8.57 µM | 12.5 µM | 30.3 µM
CC(CCCOC(c1ccccc1)(c1ccccc1)c1ccccc1)OC(=O)Nc1cc([N+](=O)[O-])cc([N+](=O)[O-])c1 (stereo not drawn) | – | > 100 µM | – | > 100 µM | – | > 100 µM | – | > 100 µM | – | > 100 µM | – | > 100 µM | – | – | – | > 100 µM | – | – | – | 97 µM
N#Cc1ccccc1NC(=O)c1ccccc1 | – | – | – | > 100 µM | – | > 100 µM | – | > 100 µM | – | > 100 µM | – | > 100 µM | – | > 100 µM | – | > 100 µM | – | > 100 µM | – | > 100 µM
FC(F)(F)c1ccc2nc(Nc3ccc(Cl)c(Cl)c3)c(-c3ccccc3)nc2c1 | – | > 100 µM | – | > 100 µM | – | – | – | – | – | – | – | – | – | > 100 µM | – | > 100 µM | – | > 100 µM | – | > 100 µM
Cc1cn2c(/C=N/N/C(N)=N\N)c(-c3ccc(Cl)c([N+](=O)[O-])c3)nc2s1 | – | – | – | – | 3.55 µM | 37.8 µM | 2.17 µM | > 50 µM | 1.02 µM | 2.29 µM | – | – | 1.03 µM | 2.1 µM | 0.891 µM | 1.8 µM | 5.82 µM | 30.7 µM | 3.99 µM | 15.6 µM
C[C@H](CS(C)(=O)=O)Nc1ncc2cc(Oc3ccc(F)cc3F)c(=O)n(C)c2n1 | > 25 µM | > 25 µM | > 25 µM | > 25 µM | > 25 µM | > 25 µM | > 25 µM | > 25 µM | > 25 µM | > 25 µM | > 25 µM | > 25 µM | > 25 µM | > 25 µM | > 25 µM | > 25 µM | > 25 µM | > 25 µM | – | –
O=C(Nc1ccc2c(c1)oc(=O)c1ccccc12)C(Cl)Cl | – | > 100 µM | – | > 100 µM | – | > 100 µM | – | > 100 µM | – | > 100 µM | – | – | – | > 100 µM | – | > 100 µM | – | – | – | > 100 µM
CN(C)CCNC(=O)c1ccc(Cl)c2c(Nc3ccc(S(N)(=O)=O)cc3)c3ccccc3nc12 | – | – | – | 1.71 µM | – | 16.5 µM | – | 11.4 µM | – | 5.12 µM | – | 6.22 µM | – | 8.48 µM | – | 15.3 µM | – | 13.6 µM | – | 17.7 µM
Fc1ccc(Nc2nc(NCCNc3ccnc4cc(Cl)ccc34)nc(N3CCOCC3)n2)cc1 | 0.457 µM | 16.3 µM | 4.82 µM | 17 µM | 6.3 µM | 21.4 µM | 2.91 µM | 10.3 µM | 5.44 µM | 18.7 µM | 10.7 µM | 23.1 µM | 17.6 µM | 32.1 µM | 4.19 µM | 15.3 µM | 10.3 µM | 22.7 µM | – | –
C/C=C(/CCCCNCCCC)[Si](C)(C)C | – | 73.4 µM | – | 26.6 µM | – | 37 µM | – | 45 µM | – | 30.6 µM | – | – | – | 27.6 µM | – | 29.2 µM | – | 28.6 µM | – | 25.8 µM
COc1cc(Oc2c(O)c(C)c(OC)c(C(C)=O)c2O)c(C(C)=O)c(O)c1C | – | > 100 µM | – | > 100 µM | – | > 100 µM | – | – | – | > 100 µM | – | > 100 µM | – | > 100 µM | – | > 100 µM | – | 86.7 µM | – | –
C=C(C)[C@@H]1CC[C@@]2(C)[C@H]1[C@H]1CCC3[C@@]4(C)CC[C@H](O)C(C)(C)[C@@H]4CC[C@@]3(C)[C@]1(C)C[C@@H]2O (stereo partly drawn) | – | > 100 µM | – | > 100 µM | – | > 100 µM | – | 47.7 µM | – | > 100 µM | – | – | – | > 100 µM | – | 80.6 µM | – | > 100 µM | – | > 100 µM
O=C1C(=O)N(C2C3CC4CC(C3)CC2C4)C(=O)C(=O)C1c1nc2ccccc2o1 (stereo not drawn) | – | – | – | > 100 µM | – | > 100 µM | – | 77.4 µM | – | > 100 µM | – | > 100 µM | – | > 100 µM | – | > 100 µM | – | > 100 µM | – | > 100 µM
CC1=CC(=O)C(C(C)=Nc2ccccc2Cl)C(=O)O1 (stereo not drawn) | > 100 µM | > 100 µM | > 100 µM | > 100 µM | 76.2 µM | > 100 µM | > 100 µM | > 100 µM | > 100 µM | > 100 µM | – | – | > 100 µM | > 100 µM | > 100 µM | > 100 µM | > 100 µM | > 100 µM | > 100 µM | > 100 µM
CC(=O)C1=C([O-])C(C)OC1=O.CC(=O)C1=C([O-])C(C)OC1=O.[NH-]C1CCCC[C@H]1[NH-].[Pt+4] (stereo not drawn) | – | – | 45.6 µM | > 100 µM | > 100 µM | > 100 µM | 61.2 µM | > 100 µM | > 100 µM | > 100 µM | 88.9 µM | > 100 µM | – | – | > 100 µM | > 100 µM | > 100 µM | > 100 µM | > 100 µM | > 100 µM
COc1ccc(/C=C2\CCCC3=C2NC(C)=NC3c2ccc(OC)c(OC)c2)cc1OC (stereo not drawn) | 2.75 µM | > 100 µM | 2.39 µM | 22.1 µM | 50.6 µM | > 100 µM | 4.54 µM | > 100 µM | 61.2 µM | > 100 µM | 12.4 µM | > 100 µM | 71 µM | > 100 µM | – | – | 12.3 µM | 74.7 µM | – | –
COc1cnc2c(c1)C(=O)c1c-2n(CCCN2CCCC2)c(=O)c2cc(Cl)ccc12 | 0.025 µM | 9.05 µM | – | – | 2.47 µM | 12.5 µM | 0.792 µM | 11.4 µM | 2.11 µM | 10.3 µM | 1.43 µM | 11.2 µM | 5.02 µM | 11.3 µM | 0.0278 µM | 6.8 µM | – | – | 2.18 µM | 11.3 µM
Nc1nc(OCc2ccccc2)nc2[nH]ncc12 | – | – | 19.7 µM | 39 µM | 32.5 µM | > 100 µM | 19.7 µM | > 100 µM | 16.2 µM | 34.5 µM | 17.5 µM | 63.4 µM | 11.9 µM | 28.2 µM | 16.9 µM | 31.1 µM | 1.39 µM | 14.2 µM | 38.6 µM | > 100 µM
COC(=O)[C@@H]1CCCN1C(=O)[C@@H]1CCCN1C(=O)[C@@H](Cc1c[nH]c2ccccc12)NC(=S)Nc1cc(C(F)(F)F)cc(C(F)(F)F)c1 | 3.39 µM | > 100 µM | 4.03 µM | > 100 µM | 3.91 µM | 48.7 µM | 3.98 µM | > 100 µM | 5.45 µM | > 100 µM | 4.32 µM | > 100 µM | 15 µM | 73 µM | 6.48 µM | > 100 µM | 10.9 µM | 87.8 µM | – | –
O=C1CC2C(=O)N(Cc3ccccc3)C1C(S(=O)(=O)c1ccccc1)C2S(=O)(=O)c1ccccc1 (stereo not drawn) | – | 3.46 µM | – | 15.9 µM | – | 36 µM | – | 6.66 µM | – | 29.7 µM | – | 4.74 µM | – | 31.9 µM | – | 37.4 µM | – | 3.95 µM | – | –
O=C(Cc1ccccc1)N/N=C(\C1=Nc2ccc([N+](=O)[O-])cc2NC1O)C(O)c1ccc([N+](=O)[O-])cc1 (stereo not drawn) | – | > 100 µM | – | > 100 µM | – | > 100 µM | – | > 100 µM | – | – | – | – | – | > 100 µM | – | > 100 µM | – | > 100 µM | – | > 100 µM
C/C1=C\CC[C@@](C)(O)[C@@H]2CC3[C@@H](OC(=O)C34CC4)[C@@H](O2)[C@H](C)CCC1 (stereo partly drawn) | 3.95 µM | > 100 µM | 16.5 µM | 30.1 µM | 6.48 µM | 24.1 µM | 35.1 µM | > 100 µM | 21.6 µM | 62.2 µM | 38 µM | > 100 µM | 16.1 µM | 30.2 µM | 17.3 µM | 34.4 µM | – | – | – | –
